Paper PMC6941952, “A homogeneous bioluminescent immunoassay to probe cellular signaling pathway regulation” (Communications Biology, 2020)
“And” between values parts separate entries of the source, which are not always exact repeats. Equal values may be shown once.

System: phospho-IκBα (Ser32)
Assay: NanoBiT cell-based immunoassay, phosphorylated IκBα in MCF-7 cells
Parameters: species or system human
Experimental: Prior to NanoBiT Cell-Based Immunoassay, 50,000 cells were seeded in 160 µl of complete growth media per well of a 96-well plate and incubated overnight. The cells were checked under microscope and it was determined that 50,000 cells per well in 96-well plate is under 90% confluency for all cells tested. If necessary, the cell culture media were replaced with serum-free media after the cells were stably adherent on the plate and incubated overnight. To treat cells with activators or inhibitors, medium was changed to 30 µl of medium containing inhibitors. If activation of a specific pathway is needed, the cells were stimulated with 10 µl of medium containing activators. To lyse the cells, 10 µl of lysis buffer containing 0.1% digitonin diluted in 1X immunoassay buffer with protease and phosphatase inhibitors was added and the plates were mixed vigorously for 20 min. Then, 50 µl of an antibody mix containing two primary antibodies against the target protein and NanoBiT detecting antibodies (0.3 µl each per well), diluted in 1X immunoassay buffer was added to the lysates. The plates were incubated at 23 °C for 90 min, followed by the addition of 25 µl of Nano-Glo® reagent consisting of Nano-Glo® Luciferase Assay Substrate mixed with 1X immunoassay buffer. Luminescence was measured using a plate-reading luminometer.
In all, 50,000 MCF-7 cells were seeded in 160 µl complete growth medium per well of a 96-well plate and incubated overnight. Half of the cells were treated with 50 ng per ml TNFα and half with vehicle. Cells were lysed as described above and a mixture of NanoBiT secondary antibodies with primary antibodies at the matrix concentrations described in Fig. 2a were added. After 90 min incubation, the Nano-Glo® reagent was added to the reactions as described above and luminescence was measured using a plate-reading luminometer.
Single dose or dose response inhibitor treatments were performed prior to activation of the pathways as follows. For IκBα, the cells were treated in 30 µl medium with IKK16 or MG132 for 60 min before the addition of 10 µl of DMEM containing appropriate concentration of TNFα. To measure phosphorylation of AKT or STAT3, the corresponding NanoBiT immunoassays were developed with MCF-7 or A431 cells, respectively, according the same scheme used to develop the IκBα assay using the primary antibodies for AKT and STAT3 described in the reagents section. For the AKT assay, MCF-7 cells were incubated overnight in phenol-red free DMEM medium (Gibco #21063-029) without serum. Treatment with LY294002 was performed in 30 µl medium and cells were incubated for 60 min before the addition of 1 µM Insulin. To measure STAT3 phosphorylation, A431 cells were incubated overnight in DMEM medium without serum. […] After addition of the stimulators, the cells were incubated for additional times as follows. IκBα phosphorylation and degradation analyses required both time courses and single time points as described in figures. […] The NanoBiT immunoassay protocol was followed as described above.
All 96-well assay plates were read using a GloMax® 96 Microplate Luminometer from Promega. The instrument was set to 0.5 s integration time. In order to obtain net change of signal, the reagent background values (signal from the well containing all reagent except primary antibodies) were subtracted from the sample values. To plot and analyze the data, Microsoft Excel and GraphPad Prism® Software were used. IC50 values were determined by using a nonlinear regression fit to a sigmoidal dose response (variable slope).

Q: `O=C(c1ccc(Nc2nccc(-c3cc4ccccc4s3)n2)cc1)N1CCC(N2CCCC2)CC1` [IKK16] was tested. Which “P-IkB Raw data” value (Figure 3a and 3b) did it give?
A: 17490 and 17630 and 17730

Q: And the “P-IkB Subtract reagent background” value (Figure 3a and 3b)?
A: 280 and 420 and 520

Q: What about the “P-IkB Average” value (Figure 3a and 3b, background subtracted) of the same compound?
A: 407

Q: What about the “TNFα-induced phosphorylation of IκBα on serine 32” value (MCF-7 cells, 10 µM 1 h, TNFα 50 ng per ml 10 min) of the same compound?
A: suppressed
